Measured values published in PubChem BioAssay (NCI).
Where “and” joins values, the source holds several entries; their conditions need not be identical. Equal values may be shown once.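 The compound was tested at five concentrations on cells cultured in 96-well plates, with a 48-hour exposure period. Here, GI50 denotes the concentration required for 50% inhibition of growth. TGI: total growth inhibition.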

Tests used:
Test in all cases: NCI anticancer screen, dose series, 48 h
PC-3 prostate = system: PC-3 prostate
MDA-MB-231 breast = system: MDA-MB-231 breast
BT-549 breast = system: BT-549 breast
786-0 renal = system: 786-0 renal
DU-145 prostate = system: DU-145 prostate
HS 578T breast = system: HS 578T breast
MDA-N = system: MDA-N
MDA-MB-435 = system: MDA-MB-435
MCF7 breast = system: MCF7 breast
KM20L2 colon = system: KM20L2 colon
XF 498 CNS = system: XF 498 CNS

SMILES | TGI (PC-3 prostate) | TGI (MDA-MB-231 breast) | TGI (BT-549 breast) | TGI (786-0 renal) | TGI (DU-145 prostate) | TGI (HS 578T breast) | TGI (MDA-N) | TGI (MDA-MB-435) | TGI (MCF7 breast) | GI50 (PC-3 prostate) [µM] | GI50 (MDA-MB-231 breast) [µM] | GI50 (BT-549 breast) [µM] | GI50 (DU-145 prostate) [µM] | GI50 (MCF7 breast) [µM] | GI50 (HS 578T breast) [µM] | GI50 (MDA-MB-435) [µM] | TGI (KM20L2 colon) [µM] | TGI (XF 498 CNS) [µM] | GI50 (XF 498 CNS) [µM]
NC(CCc1ccccc1)(C(=O)O)c1ccccc1 (stereo unspecified) | > 100 µM | > 100 µM | > 100 µM | > 100 µM | > 100 µM | > 100 µM | > 100 µM | > 100 µM |  |  |  |  |  |  |  |  |  |  | 
NCCCCN | > 100 µM | > 100 µM | > 100 µM | > 100 µM | > 100 µM |  |  | 31.4 µM | > 100 µM |  |  |  |  |  |  |  |  |  | 
CC(C)c1ccc2c(c1)[C@@]1(C)CC[C@H](C)C(C)(C)C1CC2 (stereo partly specified) |  | 34 µM | 35 µM | 33.4 µM | 59.4 µM | 47.4 µM | 56.3 µM | 31.3 µM | 32.1 µM |  |  |  |  |  |  |  |  |  | 
C[C@H](Nc1ccc(C#N)n(C)c1=O)c1cc2cc(Cl)ccc2[nH]c1=O | 83.5 µM | 98.4 µM | 70.1 µM |  | > 100 µM | > 100 µM |  | 88.7 µM | > 100 µM | 13.3 | 23.2 | 12.2 | 33 | 23.2 | 13.7 | 28.6 |  |  | 
O=P(O)(O)OP(=O)(O)O | > 100 µM | > 100 µM | > 100 µM | > 100 µM | > 100 µM | > 100 µM | > 100 µM | > 100 µM | > 100 µM |  |  |  |  |  |  |  |  |  | 
CC(C)(C)OC(=O)N1C[C@H](CC(=O)OCc2ccccc2)C[C@H]1C(=O)OCC(Cl)(Cl)Cl | > 50 µM | > 50 µM | > 50 µM | > 50 µM | > 50 µM | > 50 µM |  | > 50 µM | > 50 µM |  |  |  |  |  |  |  |  |  | 
COC1OC(C(=O)CP(=O)(OC)OC)C(OCc2ccccc2)C(OCc2ccccc2)C1OCc1ccccc1 (stereo unspecified) | 28.1 µM and 28.7 µM | 31.7 µM and 29.9 µM | 32 µM and 33.8 µM | 31.3 µM and 31.4 µM | 31.3 µM and 33.5 µM | 63.4 µM and 74.8 µM | 29.8 µM and 30.8 µM | 31.8 µM and 35.9 µM | 30.5 µM |  |  |  |  |  |  |  |  |  | 
CCN(CC)/[N+]([O-])=N/OC |  |  |  |  |  |  |  |  |  |  |  |  |  |  |  |  | > 100 | > 100 | 
Cc1cc(O)c2c(c1O)C(=O)c1c(O)ccc(O)c1C2=O | > 100 µM | > 100 µM | > 100 µM | > 100 µM | > 100 µM | > 100 µM | > 100 µM | > 100 µM | > 100 µM |  |  |  |  |  |  |  |  |  | 
CCOC(=O)C(=CNC(Cc1c[nH]c2ccccc12)C(=O)OC)C(=O)OCC (stereo unspecified) |  |  |  |  |  |  |  |  |  |  |  |  |  |  |  |  | > 100 | > 100 | 
COc1ccc(Cc2nc3cc(Cl)ccc3o2)cc1 | > 100 µM | > 100 µM | 64.4 µM | > 100 µM | > 100 µM | > 100 µM | > 100 µM | 69 µM | > 100 µM |  |  |  |  |  |  |  |  |  | 
CCCCCCOC(=O)C(N)Cc1ccc(OC)cc1 (stereo unspecified) | > 100 µM | > 100 µM | > 100 µM | > 100 µM | > 100 µM | > 100 µM |  | > 100 µM | > 100 µM |  |  |  |  |  |  |  |  |  | 
COC(=N)C(C)C |  |  |  |  |  |  |  |  |  |  |  |  |  |  |  |  | > 100 |  | 
C/C(=C\CNc1ncnc2nc(Cl)[nH]c12)CO | > 100 µM | > 100 µM |  | > 100 µM | > 100 µM | > 100 µM | > 100 µM | > 100 µM | > 100 µM |  |  |  |  |  |  |  |  |  | 
O=S1c2ccccc2N=C(c2ccc3ccccc3c2)CC1c1ccccc1 (stereo unspecified) |  |  |  |  |  |  |  |  |  |  |  |  |  |  |  |  | 35.7 | > 100 | 
C=C1CCCC(C)(C)[C@@H]1CC/C(C)=C/Cn1c2cccc(=O)c-2nc2ccccc21 |  |  |  |  |  |  |  |  | > 100 µM and 10.4 µM |  |  |  |  | 4.92 |  |  |  |  | 2.8

SMILES | TGI (PC-3 prostate) | TGI (MDA-MB-231 breast) | TGI (BT-549 breast) | TGI (786-0 renal) | TGI (DU-145 prostate) | TGI (HS 578T breast) | TGI (MDA-N) | TGI (MDA-MB-435) | TGI (MCF7 breast) | GI50 (PC-3 prostate) [µM] | GI50 (MDA-MB-231 breast) [µM] | GI50 (BT-549 breast) [µM] | GI50 (DU-145 prostate) [µM] | GI50 (MCF7 breast) [µM] | GI50 (HS 578T breast) [µM] | GI50 (MDA-MB-435) [µM] | TGI (KM20L2 colon) [µM] | TGI (XF 498 CNS) [µM] | GI50 (XF 498 CNS) [µM]
CC(C)(C)c1ccc(O)c(Br)c1 | > 100 µM | > 100 µM | > 100 µM | > 100 µM | > 100 µM | > 100 µM | > 100 µM | > 100 µM | > 100 µM |  |  |  |  |  |  |  |  |  | 
COc1cccc(/C=N/[N-]C(N)=O)c1[O-].[Cu+2].[OH3+].c1cnc2c(c1)ccc1cccnc12 |  |  |  | 20.2 µM |  |  |  |  |  |  |  |  |  |  |  |  | > 100 | 6.36 | 2.3
O=c1oc2c(ccc3occc32)c(N2CCCCC2)c1-c1ccccc1 |  |  |  |  |  |  |  |  | > 100 µM |  |  |  |  |  |  |  | > 100 | > 100 | 
Fc1cc(C2=C[C@H](c3ccc4c(c3)OCO4)NC(=S)N2)c(Cl)cc1Cl | 85.8 µM | > 100 µM | > 100 µM | > 100 µM | > 100 µM | > 100 µM | > 100 µM | > 100 µM | > 100 µM |  |  |  |  |  |  |  |  |  | 
O=C(N/N=C\c1ccc([N+](=O)[O-])cc1)Nc1ccccc1 | > 100 µM |  | > 100 µM |  | > 100 µM | > 100 µM | > 100 µM | > 100 µM | > 100 µM |  |  |  |  |  |  |  |  |  | 
CC(C)(C)OC(=O)N1C(C2=COc3ccccc3O2)=COc2cccnc21 | 6.04 µM | 4.01 µM | 5.42 µM | 3.66 µM | 2.76 µM | 19.1 µM | 4.68 µM | 3.67 µM | 3.08 µM |  |  |  |  |  |  |  |  |  | 
NC(N)=NS(=O)(=O)c1ccc(Nc2c3ccccc3nc3c(C(=O)N4CCN(CCO)CC4)ccc(Cl)c23)cc1 |  |  |  |  |  |  |  |  |  |  |  |  |  |  |  |  | > 100 | > 100 | 
Clc1ccc(NCc2nnc(COc3ccc(OCc4nnc(CNc5ccc(Cl)cc5)o4)c(Cl)c3)o2)cc1 | > 100 µM | 63.3 µM | > 100 µM | > 100 µM | > 100 µM | > 100 µM | > 100 µM | > 100 µM | 88.3 µM |  |  |  |  |  |  |  |  |  | 
O=C(CSc1nc2ccc(Cl)cc2c(=O)n1-c1ccccc1)N=Nc1c(O)[nH]c2ccc(F)cc12 | 6.82 µM | 5.82 µM | 4.11 µM | 4.45 µM | 4.85 µM | > 27 µM | 7.53 µM | 5.69 µM | 4.64 µM |  |  |  |  |  |  |  |  |  | 
COc1cc(S(=O)(=O)N/N=C/C=C/c2ccccc2)c(OC)cc1NC(C)=O | > 100 µM |  | > 100 µM | > 100 µM | > 100 µM | > 100 µM | > 100 µM | > 100 µM | > 100 µM |  |  |  |  |  |  |  |  |  | 
COC(=O)c1c(O)ccc2c1c1c(n2Cc2ccccn2)C(=O)c2ccccc2C1 | 90.2 µM | > 100 µM | > 100 µM | > 100 µM | > 100 µM | > 100 µM | > 100 µM | > 100 µM | > 100 µM |  |  |  |  |  |  |  |  |  | 
Cc1cc(N2CCOCC2)nc(N(CCCNc2ccnc3cc(Cl)ccc23)Cc2ccc3c(c2)OCO3)n1 | 3.24 µM | 3.32 µM |  |  | 2.93 µM | 4.61 µM |  |  |  | 1.62 | 1.68 |  | 1.43 |  | 1.97 |  |  |  | 
O=CC(O)C(O)C(O)COc1cc(CO)cc2c1C(=O)c1ccccc1C2=O (stereo unspecified) |  |  |  | > 100 µM |  |  |  |  |  |  |  |  |  |  |  |  | > 100 | > 100 | 
CC(Br)C(=O)c1ccc2cc(Br)c3ccccc3c2c1 (stereo unspecified) |  | 30.2 µM | 28.7 µM | 11.7 µM | 31.3 µM | 62.9 µM | 27 µM | 29.9 µM | 30.1 µM |  |  |  |  |  |  |  |  |  | 
CC(C)=CCC/C(C)=C/CC/C(C)=C/[C@@H]1[C@@H](CO)[C@]1(C)CC/C=C(\C)CCC=C(C)C | 56.5 µM | 52.2 µM | > 100 µM | 42.9 µM | > 100 µM | > 100 µM |  | > 100 µM |  |  |  |  |  |  |  |  |  |  | 
